From ChEMBL document CHEMBL1201862, “PubChem BioAssay data set” (2004)
Blank lines part the entries; values can stand above or below the molecule they belong to. Calls of active or inactive are those of the source.

What was measured:
[1] = target: Lysine-specific demethylase 4A (Homo sapiens, UniProt O75164); assay: inhibition of JMJD2A H3K9me3 demethylation – biochemical, DELFIA europium, cherry-picked samples, selectivity assay for GASC-1 inhibitor project, dose response (AID 488840)
[2] = target: Lysine-specific demethylase 4C (Homo sapiens, UniProt Q9H3R0); assay: inhibition of JMJD2C H3K9me3 demethylation – biochemical, DELFIA europium, cherry-picked samples, dose response (AID 488835); type: functional
[3] = target: T1, Kappa-type opioid receptor (Homo sapiens, UniProt P41145); assay: SAR analysis of small molecule agonists of the kappa opioid receptor via a luminescent beta-arrestin assay - Set 3. [Related pubchem assays (depositor defined):AID1777, AID1785, AID1786, AID1966, AID2133, AID2136, AID2284, AID2500]; type: functional
Exodeoxyribonuclease V = Exodeoxyribonuclease V (Escherichia coli (strain K12), UniProt P04993+P07648+P08394); assay: RecBCD inhibition via phage-restricted bacterial growth – absorbance, V66 E. coli, mutant T4 phage, counter-screen for AddAB inhibitor project, dose response (AID 492957); type: functional, cell-based, Escherichia coli str. K-12 substr. MG1655
[4] = Counterscreen for AddAB inhibitors: absorbance-based bacterial cell-based high throughput dose response assay for inhibitors of bacterial viability. [Related pubchem assays (depositor defined):AID435030, AID449728, AID449731, AID488942, AID488955, AID488956]; type: functional
[5] = target: T2, Delta-type opioid receptor (Homo sapiens, UniProt P41143); assay: HTS Image-Based Screen for Antagonists of the DOR Receptor. [Related pubchem assays (depositor defined):AID1777, AID1785, AID1786, AID2133]; type: functional
Mu-type opioid receptor [6] = target: T3, Mu-type opioid receptor (Homo sapiens, UniProt P35372); assay: HTS Image-Based Screen for Agonists of the MOR Receptor. [Related pubchem assays (depositor defined):AID1777, AID1785, AID1786, AID2133]; type: functional
[7] = target: Neuropeptide Y receptor type 1 (Homo sapiens, UniProt P25929); type: functional;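 note: HEK293 cells with a CNG channel challenged with NPY then isoproterenol; potency as antagonist that reverses NPY suppression of cAMP signal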
[8] = target: T2, Delta-type opioid receptor; assay: HTS Image-Based Screen for Agonists of the DOR Receptor. [Related pubchem assays (depositor defined):AID1777, AID1786, AID2133]; type: functional
[9] = target: Neuropeptide Y receptor type 2 (Homo sapiens, UniProt P49146); type: functional, cell-based;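 note: HEK293 cells expressing the receptor and a CNG channel; stimulus was NPY near EC95 followed by isoproterenol to raise cAMP; antagonist potency measured as restoring cAMP signal that NPY suppresses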
[10] = target: T1, Kappa-type opioid receptor; type: functional
[11] = target: T1, Kappa-type opioid receptor; type: functional; remark: listed apart in the source
[12] = target: T1, Kappa-type opioid receptor; assay: SAR analysis of small molecule agonists of the kappa opioid receptor via a luminescent beta-arrestin assay. [Related pubchem assays (depositor defined):AID1777, AID1786, AID1966, AID2133, AID2136, AID2348, AID2352, AID2357, AID2359, AID2370, AID2420, AID2478, AID2491, AID2492, AID2493, AID2497, AID2498, AID2500, AID449737, AID488822, AID488842]; type: functional
Mu-type opioid receptor [13] = target: T3, Mu-type opioid receptor; assay: mu opioid receptor activators, image-based, SAR follow-up (AID 2352); type: functional
[14] = target: T2, Delta-type opioid receptor; assay: DOR agonists, SAR follow-up, image-based (AID 2370); type: functional
[15] = target: T1, Kappa-type opioid receptor; assay: kappa opioid receptor blockers, image-based, SAR follow-up (AID 2348); type: functional
Mu-type opioid receptor [16] = target: T3, Mu-type opioid receptor; assay: mu opioid receptor blockers – image-based, SAR follow-up (AID 2420); type: functional;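 note: compounds added before stimulation of receptor with agonist DAMGO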
[17] = target: T4, Heat shock factor protein 1 (Mus musculus, UniProt P38532); assay: enhancement of HSF1-driven luciferase signal – cell-based, NIH3T3, luminescence, dose retest, confirmation (AID 435004); type: functional;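 note: stress induced by proteasome inhibitor MG132 added 30 min after compound; luciferase reporter driven by HSF1 response element in NIH3T3 cells; actives raise luminescence as potentiators of the MG132 stress response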
T4 sequence (P38532 whole entry): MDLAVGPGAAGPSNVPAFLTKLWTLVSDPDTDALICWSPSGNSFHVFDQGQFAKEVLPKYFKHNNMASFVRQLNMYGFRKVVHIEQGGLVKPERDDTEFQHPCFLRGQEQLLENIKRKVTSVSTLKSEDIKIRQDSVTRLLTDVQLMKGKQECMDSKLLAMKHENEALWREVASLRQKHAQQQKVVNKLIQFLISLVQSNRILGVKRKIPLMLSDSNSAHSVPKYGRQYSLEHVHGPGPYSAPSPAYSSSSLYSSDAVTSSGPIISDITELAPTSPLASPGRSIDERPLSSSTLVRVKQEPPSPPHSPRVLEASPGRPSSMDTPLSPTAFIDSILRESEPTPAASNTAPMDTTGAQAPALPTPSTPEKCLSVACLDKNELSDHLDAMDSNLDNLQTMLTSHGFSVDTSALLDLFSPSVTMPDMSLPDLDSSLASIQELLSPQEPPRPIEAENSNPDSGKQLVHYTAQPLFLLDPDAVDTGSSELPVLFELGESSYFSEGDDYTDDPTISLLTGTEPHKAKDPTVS

[18] = target: T1, Kappa-type opioid receptor; assay: kappa opioid receptor activation potency – imaging, image-based, SAR follow-up (AID 2359); type: functional
[19] = target: T2, Delta-type opioid receptor; assay: delta opioid receptor blockers – image-based, SAR follow-up (AID 2357); type: functional
SUMO E1/E2 = SUMO E1/E2 (Homo sapiens, UniProt P63279+Q9UBE0+Q9UBT2); assay: SAR analysis of SUMOylation using HTRF in an in-Vitro dose response assay. [Related pubchem assays (depositor defined):AID2006, AID2011, AID2018, AID2069, AID2658]; type: functional
[20] = target: T5, Voltage-gated N-type calcium channel alpha-1B subunit/Amyloid beta A4 precursor protein-binding family A member 1 (Homo sapiens, UniProt Q00975+Q02410); assay: disruptors of Mint-PDZ/N-type channel peptide interaction – biochemical, HTRF, set 2, SAR follow-up (AID 434980); type: functional
[21] = target: T5, Voltage-gated N-type calcium channel alpha-1B subunit/Amyloid beta A4 precursor protein-binding family A member 1; assay: disruptors of Mint-PDZ/N-type channel peptide interaction – biochemical, HTRF, SAR follow-up (AID 2489); type: functional
[22] = target: T6, Eukaryotic translation initiation factor 4H (Homo sapiens, UniProt Q15056); assay: eIF4H binding inhibition – biochemical, uHTS, fluorescence polarization, translation initiation inhibitor project, primary screen (AID 2012)
Estrogen receptor beta = Estrogen receptor beta (Homo sapiens, UniProt Q92731);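 note: recombinant ER-beta bound to coactivator SRC1 peptide in presence of estradiol agonist; inhibitors block coactivator peptide binding and lower the FRET signal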
[23] = target: T7, Polyadenylate-binding protein 1 (Homo sapiens, UniProt P11940); assay: blockers of PABP interaction with poly(A) – biochemical, fluorescence polarization, […] (AID 2014)
[24] = target: T6, Eukaryotic translation initiation factor 4H; assay: inhibitors of translation initiation factor eIF4H – SAR follow-up (AID 435011); type: functional
[25] = target: T7, Polyadenylate-binding protein 1; assay: PABP inhibition in translation initiation, SAR follow-up (AID 435018); type: functional
[26] = target: T7, Polyadenylate-binding protein 1; assay: SAR analysis for the identification of translation initiation inhibitors (PABP) via an Electrophoretic Mobility Shift Dose Response Assay. [Related pubchem assays (depositor defined):AID2012, AID2014, AID2030]; type: functional
[27] = target: T8, Sphingosine 1-phosphate receptor 4 (Homo sapiens, UniProt O95977); assay: Late-stage fluorescence dose response cell-based assay to identify agonists of the Sphingosine 1-Phosphate Receptor 4 (S1P4): purchased compounds EC50. [Related pubchem assays (depositor defined):AID1509, AID1523, AID1563, AID1686, AID1701, AID1801]; type: functional
T8 sequence (O95977 whole entry): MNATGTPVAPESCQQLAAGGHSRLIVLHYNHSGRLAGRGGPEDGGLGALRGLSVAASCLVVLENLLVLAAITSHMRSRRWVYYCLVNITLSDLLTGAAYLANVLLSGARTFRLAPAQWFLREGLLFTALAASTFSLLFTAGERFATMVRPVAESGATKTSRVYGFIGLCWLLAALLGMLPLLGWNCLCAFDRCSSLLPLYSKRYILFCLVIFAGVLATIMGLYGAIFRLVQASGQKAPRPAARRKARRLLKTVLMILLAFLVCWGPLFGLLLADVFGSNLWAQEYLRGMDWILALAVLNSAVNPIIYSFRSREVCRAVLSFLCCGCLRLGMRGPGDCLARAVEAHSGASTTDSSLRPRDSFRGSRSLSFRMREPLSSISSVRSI

[28] = target: T9, Runt-related transcription factor 1/Core-binding factor subunit beta (Homo sapiens, UniProt Q01196+Q13951); assay: disruptors of Runt domain/CBFb-SMMHC interaction – biochemical, FRET, Cerulean-Runt, Venus-CBFb-SMMHC, uHTS, […] (AID 1434); type: protein assay
SUMO-activating enzyme [29] = target: T10, SUMO-activating enzyme (Homo sapiens, UniProt Q9UBT2); assay: blockers of UBC9-mediated SUMO conjugation – biochemical, AlphaScreen, SUMOylation inhibitor project, confirmation (AID 2018); type: functional
[30] = target: T9, Runt-related transcription factor 1/Core-binding factor subunit beta; assay: Runt domain/CBFb-SMMHC interaction disruptors – biochemical, TR-FRET (AID 1438); type: protein assay
SUMO-activating enzyme [31] = target: T10, SUMO-activating enzyme; assay: blockers of SAE1/SAE2–UBC9 SUMO transfer – biochemical, HTRF, uHTS, primary screen (AID 2006); type: protein-complex assay
[32] = target: T11, Corticotropin-releasing factor receptor 2/Corticotropin-releasing factor-binding protein (Homo sapiens, UniProt P24387+Q13324); assay: activators of CRF receptor 2 with binding protein – uHTS hits, confirmation (AID 602473); type: functional; conditions: read-out: EC50_Mean
T11 sequence (Q13324 whole entry): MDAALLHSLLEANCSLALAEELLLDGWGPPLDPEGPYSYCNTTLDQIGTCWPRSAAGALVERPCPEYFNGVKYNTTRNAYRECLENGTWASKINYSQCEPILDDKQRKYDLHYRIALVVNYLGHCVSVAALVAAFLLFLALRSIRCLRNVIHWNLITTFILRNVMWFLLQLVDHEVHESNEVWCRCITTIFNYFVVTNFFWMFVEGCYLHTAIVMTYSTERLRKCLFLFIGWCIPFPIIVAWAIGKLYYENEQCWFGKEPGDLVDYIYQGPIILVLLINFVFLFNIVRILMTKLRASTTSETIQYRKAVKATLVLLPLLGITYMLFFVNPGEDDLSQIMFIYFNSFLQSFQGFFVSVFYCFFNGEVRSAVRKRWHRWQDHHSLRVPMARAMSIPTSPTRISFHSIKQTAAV
T11 sequence (P24387 whole entry): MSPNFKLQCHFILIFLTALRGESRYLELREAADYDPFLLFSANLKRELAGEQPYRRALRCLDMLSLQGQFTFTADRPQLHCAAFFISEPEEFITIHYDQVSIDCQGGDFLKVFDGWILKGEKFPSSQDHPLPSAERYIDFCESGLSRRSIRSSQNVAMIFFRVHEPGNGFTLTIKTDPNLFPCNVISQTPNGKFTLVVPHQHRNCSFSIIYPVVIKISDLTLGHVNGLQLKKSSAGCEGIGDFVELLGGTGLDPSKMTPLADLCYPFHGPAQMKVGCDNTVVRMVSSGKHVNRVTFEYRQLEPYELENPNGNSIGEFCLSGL

Troponin, cardiac muscle = Troponin, cardiac muscle (Homo sapiens, UniProt P19429+P45379+P63316); assay: Fluorescence-based biochemical high throughput dose response assay for activators of the calcium sensitivity of cardiac Regulated Thin Filaments (RTF). [Related pubchem assays (depositor defined):AID493008, AID493018, AID504382, AID504383]; type: protein-complex assay

Compound: O=C(CSc1nc2ccccc2o1)Nc1ccc(N2CCOCC2)cc1
IC50 (Exodeoxyribonuclease V): > 119 µM (inactive)
IC50 [4]: > 119 µM (inactive)

Compound: O=C(OCC(=O)N1CCc2ccccc2C1)c1cc(-c2ccco2)nc2ccccc12
IC50 (SUMO E1/E2): 3.76 µM (active)
IC50 [20]: 10.2 µM (active)
IC50 [21]: > 56.8 µM (inactive)

Compound: CCOC(=O)N1CCC(NC(=O)c2cccc3c2C(=O)N(c2ccc(OC)cc2)C3)CC1
IC50 [22]: 9.51 µM (active)
IC50 (Estrogen receptor beta): > 50 µM (not active)
IC50 [23]: 76.2 µM (active)
IC50 [24]: 6.47 µM (active)
IC50 [25]: > 100 µM (inactive)
IC50 [26]: 10 µM (active)

Compound: Cc1ccc(S(=O)(=O)c2cc3c(=O)n4ccccc4nc3n(Cc3ccco3)c2=N)cc1
IC50 [28]: 5.08 µM (active)
IC50 (SUMO-activating enzyme [29]): 13.4 µM (active)
IC50 [30]: 58.6 µM (inactive)
IC50 (SUMO-activating enzyme [31]): 3.93 µM (active)
EC50 [32]: > 53 µM (inactive)

Compound: CCOc1cc(N2CCOCC2)c(OCC)cc1NC(=O)CCS(=O)(=O)c1ccc(Cl)cc1
EC50 (Troponin, cardiac muscle): > 71.5 µM (inactive)

The remaining lines, values ahead:

AC50 [1]: 12.2 µM (active)
AC50 [2]: 4.19 µM (active)
Compound: CCCCn1c(-c2ccsc2)nc2c1c(=O)[nH]c(=O)n2CCC

EC50 [3]: > 20 µM (inactive)
Compound: Brc1ccc(CSc2nnc(-c3ccncc3)n2Cc2ccco2)cc1

IC50 [5]: > 32 µM (inactive)
EC50 (Mu-type opioid receptor [6]): > 32 µM (inactive)
IC50 [7]: 7.44 µM (active)
EC50 [8]: > 32 µM (inactive)
IC50 [9]: 8.06 µM (active)
EC50 [10]: 1.88 µM
EC50 [11]: 5.64 µM
EC50 [12]: 1.92 µM (active)
EC50 (Mu-type opioid receptor [13]): > 32 µM (inactive)
EC50 [14]: > 32 µM (inactive)
IC50 [15]: > 32 µM (inactive)
IC50 (Mu-type opioid receptor [16]): > 32 µM (inactive)
EC50 [17]: 36.6 µM (active)
EC50 [18]: 1.36 µM (active)
IC50 [19]: > 32 µM (inactive)
Compound: Brc1ccc(CSc2nnc(-c3ccccn3)n2Cc2ccco2)cc1

EC50 [27]: > 50 µM (inactive)
Compound: CCCc1ccc(C(=O)C(C)OC(=O)c2c(C)nn(Cc3ccccc3)c2Cl)cc1 (stereo unspecified)
